# Test results published in patent publication US20250170090A1, “METHOD FOR PREVENTING OR TREATING DISEASE OR DISORDER ASSOCIATED WITH ANTINEOPLASTIC AGENT” (ONQUALITY PHARMACEUTICALS CHINA LTD., priority 2022, published 2025).
# Where two headings read alike, the source gives them in different places.
# Tests used:
# HUVEC cells = test: CCK-8 cell viability: alleviation of proliferative toxicity of anti-tumor agents on HUVEC cells (Tables 7-1, 7-2); format: cell-based; conditions: for activation at 100 µM: Homo sapiens, 24 h, percentage increase in viable cells vs anti-tumor agent alone, read-out: Response rate % (average)
# How it was run: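 HUVEC cells were treated with anti-tumor agent (DMSO solvent) alone or combined with NO-NSAID (ethanol or water solvent), and NO-NSAID solvent controls were used for correction. After 24-48 h of culture, viability was read by CCK-8 to derive proliferative toxicity and how much NO-NSAID mitigated it.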
# [1] = test system: chemotherapy-induced hand-foot syndrome; test: Prevention of chemotherapy-induced hand-foot syndrome in rat models (Table 5); format: in vivo, SD rats; conditions: Capecitabine 4000 mg/kg once a day, Days 40
# How it was run: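 SD rats (~200 g, 10 per group) received chemotherapy drugs by gavage at 1 mL/100 g, then NO-NSAID ointment or blank ointment was applied to the paws. Hand-foot syndrome incidence was recorded, and control rate was taken as blank-group incidence minus treated-group incidence.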
# [2] = Afatinib (10 μM), NO-NSAID 100 μM
# [3] = Cabozantinib (5 μM), NO-NSAID 100 μM
# [4] = Dabrafenib (10 μM), NO-NSAID 100 μM
# [5] = Everolimus (5 μM), NO-NSAID 100 μM
# [6] = Infigratinib (15 μM), NO-NSAID 100 μM
# [7] = Lapatinib (5 μM), NO-NSAID 100 μM
# [8] = Lenvatinib (10 μM), NO-NSAID 100 μM
# [9] = Olmutinib (10 μM), NO-NSAID 100 μM
# [10] = Regorafenib (5 μM), NO-NSAID 100 μM
# [11] = Selumetinib (5 μM), NO-NSAID 100 μM
# [12] = Sorafenib (5 μM), NO-NSAID 100 μM
# [13] = Sunitinib (5 μM), NO-NSAID 100 μM
compound,measurement,setting,value
CC(=O)Oc1ccccc1C(=O)OCOC(=O)CCCCCO[N+](=O)[O-] [Compound A3],NO-NSAID response rate % (average),"HUVEC cells; Afatinib (10 μM), NO-NSAID 0.1 μM",15%
same,NO-NSAID response rate % (average),"HUVEC cells; Afatinib (10 μM), NO-NSAID 1 μM",24%
same,NO-NSAID response rate % (average),HUVEC cells; [2],32%
same,NO-NSAID response rate % (average),"HUVEC cells; Afatinib (10 μM), NO-NSAID 500 μM",22%
same,NO-NSAID response rate % (average),"HUVEC cells; Cabozantinib (5 μM), NO-NSAID 0.1 μM",14%
same,NO-NSAID response rate % (average),"HUVEC cells; Cabozantinib (5 μM), NO-NSAID 1 μM",29%
same,NO-NSAID response rate % (average),HUVEC cells; [3],56%
same,NO-NSAID response rate % (average),"HUVEC cells; Cabozantinib (5 μM), NO-NSAID 500 μM",24%
same,NO-NSAID response rate % (average),"HUVEC cells; Dabrafenib (10 μM), NO-NSAID 0.1 μM",25%
same,NO-NSAID response rate % (average),"HUVEC cells; Dabrafenib (10 μM), NO-NSAID 1 μM",30%
same,NO-NSAID response rate % (average),HUVEC cells; [4],64%
same,NO-NSAID response rate % (average),"HUVEC cells; Dabrafenib (10 μM), NO-NSAID 500 μM",33%
same,NO-NSAID response rate % (average),"HUVEC cells; Everolimus (5 μM), NO-NSAID 0.1 μM",−8%
same,NO-NSAID response rate % (average),"HUVEC cells; Everolimus (5 μM), NO-NSAID 1 μM",−8%
same,NO-NSAID response rate % (average),HUVEC cells; [5],56%
same,NO-NSAID response rate % (average),"HUVEC cells; Everolimus (5 μM), NO-NSAID 500 μM",1%
same,activation at 100 µM,HUVEC cells; [2],32%
same,activation at 100 µM,"HUVEC cells; Anlotinib (5 μM), NO-NSAID 100 μM",73%
same,activation at 100 µM,"HUVEC cells; Apatinib (10 μM), NO-NSAID 100 μM",15%
same,activation at 100 µM,"HUVEC cells; Axitinib (10 μM), NO-NSAID 100 μM",35%
same,activation at 100 µM,HUVEC cells; [3],56%
same,activation at 100 µM,HUVEC cells; [4],64%
same,activation at 100 µM,"HUVEC cells; Dacomitinib (5 μM), NO-NSAID 100 μM",32%
same,activation at 100 µM,"HUVEC cells; Encorafenib (5 μM), NO-NSAID 100 μM",28%
same,activation at 100 µM,"HUVEC cells; Erdafitinib (10 μM), NO-NSAID 100 μM",59%
same,activation at 100 µM,HUVEC cells; [5],56%
same,activation at 100 µM,"HUVEC cells; Famitinib (5 μM), NO-NSAID 100 μM",39%
same,activation at 100 µM,"HUVEC cells; Fruquintinib (10 μM), NO-NSAID 100 μM",22%
same,activation at 100 µM,"HUVEC cells; Gefitinib (10 μM), NO-NSAID 100 μM",26%
same,activation at 100 µM,HUVEC cells; [6],28%
same,activation at 100 µM,HUVEC cells; [7],40%
same,activation at 100 µM,HUVEC cells; [8],69%
same,activation at 100 µM,HUVEC cells; [9],57%
same,activation at 100 µM,HUVEC cells; [10],55%
same,activation at 100 µM,HUVEC cells; [11],49%
same,activation at 100 µM,HUVEC cells; [12],3%
same,activation at 100 µM,HUVEC cells; [13],50%
same,activation at 100 µM,"HUVEC cells; Vemurafenib (5 μM), NO-NSAID 100 μM",80%
same,NO-NSAID response rate % (average),"HUVEC cells; Infigratinib (15 μM), NO-NSAID 0.1 μM",18%
same,NO-NSAID response rate % (average),"HUVEC cells; Infigratinib (15 μM), NO-NSAID 1 μM",28%
same,NO-NSAID response rate % (average),HUVEC cells; [6],28%
same,NO-NSAID response rate % (average),"HUVEC cells; Infigratinib (15 μM), NO-NSAID 500 μM",20%
same,NO-NSAID response rate % (average),"HUVEC cells; Lapatinib (5 μM), NO-NSAID 0.1 μM",20%
same,NO-NSAID response rate % (average),"HUVEC cells; Lapatinib (5 μM), NO-NSAID 1 μM",20%
same,NO-NSAID response rate % (average),HUVEC cells; [7],40%
same,NO-NSAID response rate % (average),"HUVEC cells; Lapatinib (5 μM), NO-NSAID 500 μM",19%
same,NO-NSAID response rate % (average),"HUVEC cells; Lenvatinib (10 μM), NO-NSAID 0.1 μM",21%
same,NO-NSAID response rate % (average),"HUVEC cells; Lenvatinib (10 μM), NO-NSAID 1 μM",14%
same,NO-NSAID response rate % (average),HUVEC cells; [8],69%
same,NO-NSAID response rate % (average),"HUVEC cells; Lenvatinib (10 μM), NO-NSAID 500 μM",20%
same,NO-NSAID response rate % (average),"HUVEC cells; Olmutinib (10 μM), NO-NSAID 0.1 μM",27%
same,NO-NSAID response rate % (average),"HUVEC cells; Olmutinib (10 μM), NO-NSAID 1 μM",35%
same,NO-NSAID response rate % (average),HUVEC cells; [9],57%
same,NO-NSAID response rate % (average),"HUVEC cells; Olmutinib (10 μM), NO-NSAID 500 μM",23%
same,NO-NSAID response rate % (average),"HUVEC cells; Regorafenib (5 μM), NO-NSAID 0.1 μM",32%
same,NO-NSAID response rate % (average),"HUVEC cells; Regorafenib (5 μM), NO-NSAID 1 μM",37%
same,NO-NSAID response rate % (average),HUVEC cells; [10],55%
same,NO-NSAID response rate % (average),"HUVEC cells; Regorafenib (5 μM), NO-NSAID 500 μM",26%
same,NO-NSAID response rate % (average),"HUVEC cells; Selumetinib (5 μM), NO-NSAID 0.1 μM",28%
same,NO-NSAID response rate % (average),"HUVEC cells; Selumetinib (5 μM), NO-NSAID 1 μM",53%
same,NO-NSAID response rate % (average),HUVEC cells; [11],49%
same,NO-NSAID response rate % (average),"HUVEC cells; Selumetinib (5 μM), NO-NSAID 500 μM",34%
same,NO-NSAID response rate % (average),"HUVEC cells; Sorafenib (5 μM), NO-NSAID 0.1 μM",13%
same,NO-NSAID response rate % (average),"HUVEC cells; Sorafenib (5 μM), NO-NSAID 1 μM",7%
same,NO-NSAID response rate % (average),HUVEC cells; [12],3%
same,NO-NSAID response rate % (average),"HUVEC cells; Sorafenib (5 μM), NO-NSAID 500 μM",29%
same,NO-NSAID response rate % (average),"HUVEC cells; Sunitinib (5 μM), NO-NSAID 0.1 μM",10%
same,NO-NSAID response rate % (average),"HUVEC cells; Sunitinib (5 μM), NO-NSAID 1 μM",37%
same,NO-NSAID response rate % (average),HUVEC cells; [13],50%
same,NO-NSAID response rate % (average),"HUVEC cells; Sunitinib (5 μM), NO-NSAID 500 μM",7%
same,Control rate,[1]; ointment 1% wt,28.57%
same,Control rate,[1]; ointment 3% wt,37.50%
